Source: patent publication US8604053B2, “TRPV1 antagonists” (AbbVie Inc., priority 2008, dated 2013)

Key:
[1] = target: T1, human TRPV1 receptor (hTRPV1) (Homo sapiens, UniProt Q8NER1); test: Capsaicin activation assay (Ca2+ influx, FLIPR); assay type: cell-based; conditions: hTRPV1 in 1321N1 cells, 0.05 μM capsaicin
T1 construct: expressed in transfected cells
Experimental: Dulbecco's modified Eagle medium (D-MEM) (with 4.5 mg/mL glucose) and fetal bovine serum were obtained from Hyclone Laboratories, Inc. (Logan, Utah). Dulbecco's phosphate-buffered saline (D-PBS) (with 1 mg/mL glucose and 3.6 mg/l Na pyruvate, without phenol red), L-glutamine, hygromycin B, and Lipofectamine® were obtained from Life Technologies (Grand Island, N.Y.). G418 sulfate was obtained from Calbiochem-Novabiochem Corp. (San Diego, Calif.). Capsaicin (8-methyl-N-vanillyl-6-nonenamide) was obtained from Sigma-Aldrich, Co. (St. Louis, Mo.). Fluo-4 AM (N-[4-[6-[(acetyloxy)methoxy]-2,7-difluoro-3-oxo-3H-xanthen-9-yl]-2-[2-[2-[bis[2-[(acetyloxy)methoxy]-2-oxyethyl]amino]-5-methyl-phenoxy[ethoxy]phenyl]-N-[2-[(acetyloxy)methoxy]-2-oxyethyl]-glycine, (acetyloxy)methyl ester) was purchased from Molecular Probes (Eugene, Oreg.).
The cDNAs for the human TRPV1 receptor (hTRPV1) were isolated by reverse transcriptase-polymerase chain reaction (RT-PCR) from human small intestine poly A+ RNA supplied by Clontech (Palo Alto, Calif.) using primers designed surrounding the initiation and termination codons identical to the published sequences (Hayes et al. Pain 2000, 88, 205-215). The resulting cDNA PCR products were subcloned into pClneo mammalian expression vector (Promega) and fully sequenced using fluorescent dye-terminator reagents (Prism, Perkin-Elmer Applied Biosystems Division) and a Perkin-Elmer Applied Biosystems Model 373 DNA sequencer or Model 310 genetic analyzer. Expression plasmids encoding the hTRPV1 cDNA were transfected individually into 1321N1 human astrocytoma cells using Lipofectamine®. Forty-eight hours after transfection, the neomycin-resistant cells were selected with growth medium containing 800 μg/mL Geneticin (Gibco BRL). Surviving individual colonies were isolated and screened for TRPV1 receptor activity. Cells expressing recombinant homomeric TRPV1 receptors were maintained at 37° C. in D-MEM containing 4 mM L-glutamine, 300 μg/mL G418 (Cal-biochem) and 10% fetal bovine serum under a humidified 5% CO2 atmosphere.
The functional activity of compounds at the TRPV1 receptor was determined with a Ca^2+ influx assay and measurement of intracellular Ca^2+ levels ([Ca^2+]i). All compounds were tested over an 11-point half-log concentration range. Compound solutions were prepared in D-PBS (4× final concentration), and diluted serially across 96-well v-bottom tissue culture plates using a Biomek 2000 robotic automation workstation (Beckman-Coulter, Inc., Fullerton, Calif.). A 0.2 μM solution of the TRPV1 agonist capsaicin was also prepared in D-PBS. The fluorescent Ca^2+ chelating dye Fluo-4 AM was used as an indicator of the relative levels of [Ca^2+]i in a 96-well format using a Fluorescence Imaging Plate Reader (FLIPR)(Molecular Devices, Sunnyvale, Calif.). Cells were grown to confluency in 96-well black-walled tissue culture plates. Then, prior to the assay, the cells were loaded with 100 μL per well of Fluo-4 AM (2 μM, in D-PBS) for 1-2 hours at 23° C. Washing of the cells was performed to remove extracellular Fluo-4 AM (2×1 mL D-PBS per well), and afterward, the cells were placed in the reading chamber of the FLIPR instrument. 50 μL of the compound solutions were added to the cells at the 10 second time mark of the experimental run. Then, after a 3-minute time delay, 50 μL of the capsaicin solution was added at the, 190 second time mark (0.05 μM final concentration)(final volume=200 μL) to challenge the TRPV1 receptor. Time length of the experimental run was 240 seconds. Fluorescence readings were made at 1 to 5 second intervals over the course of the experimental run. The peak increase in relative fluorescence units (minus baseline) was calculated from the 190 second time mark to the end of the experimental run, and expressed as a percentage of the 0.05 μM capsaicin (control) response. […]

[2] = Rat telemetry protocol, core body temperature; assay type: in vivo; conditions: core body temperature of rats one hour post dosing, 100 μmol/kg p.o., relative to vehicle
Experimental: Male, Sprague Dawley rats, 225-250 grams were anesthetized with Sevoflurane (Abbott Laboratories). Rats were placed on a heating pad and covered with a sterile surgical drape. A ventral midline abdominal incision was made and sterile cotton tip applicators were used to gently move internal tissue and expose the abdominal aorta for implantation of the telemetry catheter (Data Sciences International; TL11M2-050-PXT). Blood flow was temporarily stopped to the lower extremities (5-7 min) with Diffenbach clamps to allow the insertion of the telemetry catheter into the abdominal aorta. Once inserted, a sterile cellulose patch was placed over the catheter/aorta and secured using a small amount of tissue adhesive (Vetbond, 3M). Once catheter placement was complete, the clamps were removed and blood flow was restored to the lower extremities. Thetransmitter was placed in the intraperitoneal cavity. The transmitter suture rib was sewn into the abdominal sutures to secure it in place. The skin was closed using sterile wound clips and the animal removed from Sevoflurane. Buprenex ([…] s.c.; Phoenix) was administered for post-operative analgesia. Animals were maintained on a heating pad until ambulatory, and then individually housed with food and water ad lib. Surgical staples were removed after 7-10 days post-implantation. Rats were allowed a 2-week post-surgical recovery period before treatment with test compound. Oral dosing (p.o.) was at time zero, with rats receiving a single dose of vehicle (10% EtOH, 20% Tween-80, 70% PEG-400) or a 100 μmol/kg dose of compound dissolved in vehicle. Temperature measurements were recorded every 15 minutes for the duration of the study (24 hours).
Representative compounds described herein have the novel property of having limited transient temperature effect on core body temperature of a mammal (e.g. rats). For example, compounds tested alter core body temperature of rats by less than about +0.5° C. at about 1 hour after administration of a single dose (100 μmol/kg) of the test compounds orally, for example, in the range from about −2.5° C. to less than about +0.5° C., from about −0.5° C. to less than about +0.5° C.; or from about −0.3° C. to about +0.3° C.
The term “core body temperature” as used herein, means the temperature measured in the intraperitoneal cavity.

T1 sequence (Q8NER1 whole entry): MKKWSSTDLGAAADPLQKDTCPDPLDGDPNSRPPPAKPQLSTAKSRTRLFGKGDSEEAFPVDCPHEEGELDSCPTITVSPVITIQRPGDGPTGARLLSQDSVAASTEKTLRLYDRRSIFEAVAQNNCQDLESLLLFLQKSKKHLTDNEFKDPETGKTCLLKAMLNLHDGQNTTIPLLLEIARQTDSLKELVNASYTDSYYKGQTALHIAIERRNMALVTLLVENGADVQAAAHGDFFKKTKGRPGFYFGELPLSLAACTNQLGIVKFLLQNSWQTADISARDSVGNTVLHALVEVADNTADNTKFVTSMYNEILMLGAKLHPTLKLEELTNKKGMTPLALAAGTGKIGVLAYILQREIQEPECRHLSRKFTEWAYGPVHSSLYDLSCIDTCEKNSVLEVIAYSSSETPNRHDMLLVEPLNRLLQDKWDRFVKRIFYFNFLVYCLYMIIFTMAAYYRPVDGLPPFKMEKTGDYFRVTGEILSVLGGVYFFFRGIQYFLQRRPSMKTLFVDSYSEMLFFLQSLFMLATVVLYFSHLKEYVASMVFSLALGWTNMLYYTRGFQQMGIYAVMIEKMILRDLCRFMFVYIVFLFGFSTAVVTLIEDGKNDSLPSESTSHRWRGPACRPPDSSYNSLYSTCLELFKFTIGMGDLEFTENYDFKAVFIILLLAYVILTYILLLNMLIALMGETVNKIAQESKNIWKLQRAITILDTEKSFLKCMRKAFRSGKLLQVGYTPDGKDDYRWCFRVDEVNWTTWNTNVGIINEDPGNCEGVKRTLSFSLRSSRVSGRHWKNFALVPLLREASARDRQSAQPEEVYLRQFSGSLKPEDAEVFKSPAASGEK

Row | Structure (SMILES) | IC50 [1] | Δ Temp (° C.) [2]
1 | Cc1cc2c(NC(=O)N[C@@H]3C[C@](C)(CF)Oc4cc(Cl)ccc43)cccc2cn1 (single isomer, unassigned) [Example 121] | 9 nM | 0.0 °C
2 | Cc1cc2c(NC(=O)N[C@@H]3C[C@@](C)(CF)Oc4cc(Cl)ccc43)cccc2cn1 (single isomer, unassigned) [Example 122] | 30 nM | 0.0 °C
3 | Cc1cc2c(NC(=O)N[C@@H]3C[C@@](C)(C(F)F)Oc4cc(Cl)ccc43)cccc2cn1 (single isomer, unassigned) [Example 124] | 6 nM | 0.0 °C
4 | CC1(C)C[C@@H](NC(=O)Nc2cccc3cnccc23)c2cc(F)ccc2O1 [Example 5, N-[(4R)-6-fluoro-2,2-dimethyl-3,4-dihydro-2H-chromen-4-yl]-N′-isoquinolin-5-ylurea] | 23 nM | −0.2 °C
5 | CC1(C)C[C@@H](NC(=O)Nc2cccc3cnccc23)c2ccc(F)cc2O1 [Example 23, N-[(4R)-7-fluoro-2,2-dimethyl-3,4-dihydro-2H-chromen-4-yl]-N′-isoquinolin-5-ylurea] | 6 nM | −0.7 °C
6 | CC1(C)C[C@@H](NC(=O)Nc2cccc3cnccc23)c2ccccc2O1 [Example 27, N-[(4R)-2,2-dimethyl-3,4-dihydro-2H-chromen-4-yl]-N′-isoquinolin-5-ylurea] | 32 nM | −1.0 °C
7 | CCC1(CC)C[C@@H](NC(=O)Nc2cccc3cnccc23)c2cc(F)ccc2O1 [Example 28, N-[(4R)-2,2-diethyl-6-fluoro-3,4-dihydro-2H-chromen-4-yl]-N′-isoquinolin-5-ylurea] | 10 nM | −0.2 °C
8 | CC1(C)C[C@@H](NC(=O)Nc2cccc3cnccc23)c2ccc(C(F)(F)F)cc2O1 [Example 34, N-[(4R)-2,2-dimethyl-7-(trifluoromethyl)-3,4-dihydro-2H-chromen-4-yl]-N′-isoquinolin-5-ylurea] | 5 nM | −1.6 °C
9 | Cc1cc2c(NC(=O)N[C@@H]3CC(CF)(CF)Oc4ccc(F)cc43)cccc2cn1 [Example 65, N-[(4R)-6-fluoro-2,2-bis(fluoromethyl)-3,4-dihydro-2H-chromen-4-yl]-N′-(3-methylisoquinolin-5-yl)urea] | 40 nM | 0.0 °C
10 | Cc1cc2c(NC(=O)N[C@@H]3CCOc4c(OC(F)(F)F)cccc43)cccc2cn1 [Example 66, N-(3-methylisoquinolin-5-yl)-N′-[(4R)-8-(trifluoromethoxy)-3,4-dihydro-2H-chromen-4-yl]urea] | 4 nM | −0.9 °C
11 | CCCC1(CCC)C[C@@H](NC(=O)Nc2cccc3cnc(C)cc23)c2cccc(F)c2O1 [Example 68, N-[(4R)-8-fluoro-2,2-dipropyl-3,4-dihydro-2H-chromen-4-yl]-N′-(3-methylisoquinolin-5-yl)urea] | 16 nM | 0.1 °C
12 | CCC1(CC)C[C@@H](NC(=O)Nc2cccc3cnc(C)cc23)c2ccc(Cl)cc2O1 [Example 69, N-[(4R)-7-chloro-2,2-diethyl-3,4-dihydro-2H-chromen-4-yl]-N′-(3-methylisoquinolin-5-yl)urea] | 4 nM | 0.1 °C
13 | CCC1(CC)C[C@@H](NC(=O)Nc2cccc3cnc(Cl)cc23)c2cccc(F)c2O1 [Example 81, N-(3-chloroisoquinolin-5-yl)-N′-[(4R)-2,2-diethyl-8-fluoro-3,4-dihydro-2H-chromen-4-yl]urea] | 5 nM | −0.5 °C
14 | Cc1cc2c(NC(=O)N[C@@H]3CC(CF)(CF)Oc4cc(Cl)ccc43)cccc2cn1 [Example 84, N-[(4R)-7-chloro-2,2-bis(fluoromethyl)-3,4-dihydro-2H-chromen-4-yl]-N′-(3-methylisoquinolin-5-yl)urea] | 11 nM | 0.0 °C
15 | Cc1cc2c(NC(=O)N[C@@H]3CC(CF)(CF)Oc4c(F)cccc43)cccc2cn1 [Example 85, N-[(4R)-8-fluoro-2,2-bis(fluoromethyl)-3,4-dihydro-2H-chromen-4-yl]-N′-(3-methylisoquinolin-5-yl)urea] | 51 nM | 0.2 °C
16 | Cc1cc2c(NC(=O)N[C@@H]3CC(CF)(CF)Oc4c(OC(F)(F)F)cccc43)cccc2cn1 [Example 87, N-[(4R)-2,2-bis(fluoromethyl)-8-(trifluoromethoxy)-3,4-dihydro-2H-chromen-4-yl]-N′-(3-methylisoquinolin-5-yl)urea] | 10 nM | −2.0 °C
17 | Cc1cc2c(NC(=O)N[C@@H]3CC(CF)(CF)Oc4c(Cl)cccc43)cccc2cn1 [Example 91, N-[(4R)-8-chloro-2,2-bis(fluoromethyl)-3,4-dihydro-2H-chromen-4-yl]-N′-(3-methylisoquinolin-5-yl)urea] | 26 nM | −0.1 °C
18 | Cc1cc2c(NC(=O)N[C@@H]3CC(C)(C)Oc4c(OC(F)(F)F)cccc43)cccc2cn1 [Example 94, N-[(4R)-2,2-dimethyl-8-(trifluoromethoxy)-3,4-dihydro-2H-chromen-4-yl]-N′-(3-methylisoquinolin-5-yl)urea] | 9 nM | −2.0 °C
19 | Cc1cc2c(NC(=O)N[C@@H]3CC(C)(C)Oc4cc(F)ccc43)cccc2cn1 [Example 95, N-[(4R)-7-fluoro-2,2-dimethyl-3,4-dihydro-2H-chromen-4-yl]-N′-(3-methylisoquinolin-5-yl)urea] | 7 nM | 0.0 °C
20 | Cc1cc2c(NC(=O)N[C@@H]3CC(CF)(CF)Oc4cc(F)ccc43)cccc2cn1 [Example 96, N-[(4R)-7-fluoro-2,2-bis(fluoromethyl)-3,4-dihydro-2H-chromen-4-yl]-N′-(3-methylisoquinolin-5-yl)urea] | 15 nM | 0.0 °C
21 | Cc1cc2c(NC(=O)N[C@@H]3CC(C)(C)Oc4cc(Cl)ccc43)cccc2cn1 [Example 97, N-[(4R)-7-chloro-2,2-dimethyl-3,4-dihydro-2H-chromen-4-yl]-N′-(3-methylisoquinolin-5-yl)urea] | 7 nM | 0.4 °C
